The test system of this test is T1, voltage-gated sodium channels (native Nav channels, isoform not identified).
T1 construct: native channels in isolated hippocampal CA1 pyramidal neurons
Nature of the test: whole-cell patch clamp of TTX-sensitive sodium current, steps from -110 to -10 mV. The test is classed as cell-based, Rattus norvegicus.

`CC(C)(C)c1ccc(CN2C3=NCCCCN3c3ccccc32)cc1` [DAB-19] showed a half-maximal inhibitory concentration (IC50) of 8.3 ± 1.4 µM.

As a reminder, the IC50 is the point on the concentration scale where inhibition reaches its midpoint. High values mean weaker potency, low ones greater potency.

(Values after paper PMC12154456, “Dual Mechanisms of the Diazepine-Benzimidazole Derivative, DAB-19, in Modulating Glutamatergic Neurotransmission” (International Journal of Molecular Sciences, 2025).)
